Data on eight compounds can be found in ChEMBL document CHEMBL1201862, “PubChem BioAssay data set” (2004).

The source made the active and inactive calls.

A word on the IC50: it is the concentration that gives 50% inhibition. Broadly, the EC50 is the midpoint of the concentration-response curve. Broadly, the AC50 is the concentration giving half of the maximal activity seen.

Experiment [1] in a line: cells. The format is functional, cell-based.
A short description of experiment [2]: cells. The format is functional, cell-based. This is another data set of the same source.
Experiment [3] has as its target 26S proteasome non-ATPase regulatory subunit 14 (Homo sapiens, UniProt O00487). The experiment is described as follows: inhibition of proteasome subunit RPN11 – biochemical, fluorescence polarization, uHTS hits, confirmation (AID 602368). The format is functional. (In fluorescence polarisation assays a small probe gives low polarisation when free and higher when bound to something large.)

For a further experiment, the target named is Prothrombin (Bos taurus, UniProt P00735). As to the kind of experiment: thrombin inhibition, dose response, biochemical, fluorescence polarization, uHTS hits (AID 602369). The format is functional.
For experiment [4], the target named is 72 kDa type IV collagenase (Homo sapiens, UniProt P08253). As to the kind of experiment: Dose Response validation of uHTS RPN11 inhibitor hits using a MMP-2 Fluorescence assay. The format is functional.
Experiment [5] is described as follows: Luminescence Cell-Based Dose Confirmation HTS to Identify Activators of 5'UTR Stem-Loop Driven Alpha-Synuclein mRNA Translation in H4 Neuroglioblastoma Cells. [Related pubchem assays: 1829 (Project Summary), 1814 (Primary HTS)]. The format is functional.
The next experiment relates to H4. The experiment is described as follows: Luminescence Cell-Based Dose Response HTS to Identify Activators of 5'UTR Stem-Loop Driven Prion Protein mRNA Translation in H4 Neuroglioblastoma Cells. [Related pubchem assays: 1829 (Project Summary), 1814 (Primary HTS)]. The format is functional. The note with it: Homo sapiens.
A short description of experiment [6]: Luminescence Cell-Based Dose Response HTS to Identify Activators of Luciferase Translation or Activity in H4 […] Cells. [Related pubchem assays: 1829 (Project Summary), 1814 (Primary HTS)]. The format is functional.
The next experiment concerns the target Cytochrome P450 2D6 (Homo sapiens, UniProt P10635).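 Note: CYP2D6 member of a cytochrome P450 panel assay.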
Experiment [7] can be described thus: NIH-3T3 fibroblast cytotoxicity, dose response, cytotoxicity control, cell-based, fluorescence, Alamar Blue, secondary assay (AID 2327).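 Note: NIH-3T3 mouse fibroblasts cultured with fluconazole at 8 µg/mL.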 The format is functional. In general terms: Resazurin is reduced to fluorescent resorufin, in cell work by metabolically active cells.
Experiment [8] has as its target Heat shock protein HSP 90-alpha (Homo sapiens, UniProt P07900). The format is functional, organism-based.
Experiment [9] is described as follows: C. albicans growth with fluconazole, confirmation, fluorescence, retest (AID 2467). The format is functional, cell-based.
Another experiment has as its system INS1. The experiment is described as follows: beta cell apoptosis inhibitors, cytokine rescue, dose response, luminescence, retest (AID 449756).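 Note: cell death triggered by IL-1 beta plus TNF-alpha plus IFN-gamma mixture; protective hits raise ATP signal compared with cytokine alone wells.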 The format is functional, cell-based. The following applies: Rattus norvegicus.
Experiment [10] has as its target T1, Rac GTPase-activating protein 1 (Homo sapiens, UniProt Q9H0H5).
T1 sequence (Q9H0H5 whole entry): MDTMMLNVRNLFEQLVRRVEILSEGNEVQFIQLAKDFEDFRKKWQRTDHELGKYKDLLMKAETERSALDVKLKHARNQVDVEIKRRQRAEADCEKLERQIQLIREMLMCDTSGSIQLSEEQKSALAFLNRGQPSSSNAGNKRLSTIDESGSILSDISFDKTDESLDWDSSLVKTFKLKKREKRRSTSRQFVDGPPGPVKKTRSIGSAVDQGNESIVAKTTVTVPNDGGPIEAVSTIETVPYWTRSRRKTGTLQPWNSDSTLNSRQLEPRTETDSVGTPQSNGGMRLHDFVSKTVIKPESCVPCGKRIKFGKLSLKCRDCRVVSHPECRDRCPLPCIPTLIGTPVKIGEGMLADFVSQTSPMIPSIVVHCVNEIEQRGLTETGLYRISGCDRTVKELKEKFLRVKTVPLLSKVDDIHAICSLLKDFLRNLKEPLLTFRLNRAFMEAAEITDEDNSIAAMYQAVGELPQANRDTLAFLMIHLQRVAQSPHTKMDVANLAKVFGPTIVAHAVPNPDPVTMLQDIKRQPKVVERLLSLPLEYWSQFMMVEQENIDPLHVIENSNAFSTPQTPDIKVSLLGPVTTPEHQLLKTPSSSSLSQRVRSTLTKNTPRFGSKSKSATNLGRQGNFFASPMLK
As to the kind of experiment: MgcRacGAP GTPase-activating activity inhibitors, confirmation, biochemical, ADP Hunter fluorescence, primary and confirmatory (AID 624330). The format is functional.

Experiment [11] concerns the target Disintegrin and metalloproteinase domain-containing protein 17 (Homo sapiens, UniProt P78536). The experiment is described as follows: ADAM17 protease inhibitors, dose response, counter-screen for ADAM10 exosite inhibitor project, biochemical, quenched FRET substrate (AID 743253). In general terms: Counterscreens check selectivity or assay interference.
Experiment [12] in a line: ADAM10 inhibitors, peptide cleavage, dose response, biochemical, QFRET (AID 743254).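 Note: ADAM10 enzyme with the DM2 quenched FRET peptide as substrate; EDANS fluorescence gain as the protease cuts the substrate; inhibitor potency against ADAM10 proteolytic activity.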
The subject of another experiment is Streptococcus. The experiment is described as follows: Group A Streptococcus viability loss, dose response, counter-screen for streptokinase expression inhibitor project, luminescence, BacTiterGlo (AID 1915).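 Note: potency for reduction of bacterial viability or growth.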 The format is functional, organism-based.
The target in a further experiment is T2, Streptokinase A (Streptococcus pyogenes serotype M1, UniProt P10520).
T2 sequence (P10520 whole entry): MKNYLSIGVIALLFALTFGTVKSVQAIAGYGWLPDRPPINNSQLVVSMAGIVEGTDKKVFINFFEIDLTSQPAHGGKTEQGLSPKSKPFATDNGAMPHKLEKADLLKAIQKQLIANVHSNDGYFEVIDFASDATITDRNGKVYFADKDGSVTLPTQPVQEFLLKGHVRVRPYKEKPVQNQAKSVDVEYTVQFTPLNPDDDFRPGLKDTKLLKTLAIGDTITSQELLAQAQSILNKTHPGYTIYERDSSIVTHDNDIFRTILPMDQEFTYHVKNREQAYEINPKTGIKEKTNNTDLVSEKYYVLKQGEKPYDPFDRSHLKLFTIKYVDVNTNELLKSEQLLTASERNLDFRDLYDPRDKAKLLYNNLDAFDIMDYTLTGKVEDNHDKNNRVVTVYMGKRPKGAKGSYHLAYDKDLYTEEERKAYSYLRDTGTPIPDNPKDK
As to the kind of experiment: S. pyogenes streptokinase expression inhibitors, potency, dose response, plasminogen activation absorbance, OD405 (AID 1914).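 Note: secreted streptokinase activity via plasminogen activation per viability signal from cell pellet.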 The format is functional, Streptococcus pyogenes M1 GAS.

Experiment [13] has as its system Streptococcus sp. 'group A'. The experiment is described as follows: growth inhibition of control SK(-) GAS strain, dose response, counter-screen for streptokinase expression inhibitor project, luminescence, kanamycin, BacTiterGlo, confirmation (AID 1900). The format is functional, organism-based.

26S proteasome non-ATPase regulatory subunit 14, sequence (O00487 whole entry): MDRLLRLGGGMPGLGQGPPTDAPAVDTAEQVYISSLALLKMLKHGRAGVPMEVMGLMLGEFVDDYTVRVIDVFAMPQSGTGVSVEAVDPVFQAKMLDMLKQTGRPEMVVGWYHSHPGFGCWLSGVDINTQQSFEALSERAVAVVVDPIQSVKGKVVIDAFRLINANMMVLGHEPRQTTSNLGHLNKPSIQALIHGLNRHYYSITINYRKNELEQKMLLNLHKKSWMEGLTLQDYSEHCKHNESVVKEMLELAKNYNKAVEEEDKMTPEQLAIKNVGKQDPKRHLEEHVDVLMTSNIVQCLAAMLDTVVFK
72 kDa type IV collagenase, sequence (P08253 whole entry): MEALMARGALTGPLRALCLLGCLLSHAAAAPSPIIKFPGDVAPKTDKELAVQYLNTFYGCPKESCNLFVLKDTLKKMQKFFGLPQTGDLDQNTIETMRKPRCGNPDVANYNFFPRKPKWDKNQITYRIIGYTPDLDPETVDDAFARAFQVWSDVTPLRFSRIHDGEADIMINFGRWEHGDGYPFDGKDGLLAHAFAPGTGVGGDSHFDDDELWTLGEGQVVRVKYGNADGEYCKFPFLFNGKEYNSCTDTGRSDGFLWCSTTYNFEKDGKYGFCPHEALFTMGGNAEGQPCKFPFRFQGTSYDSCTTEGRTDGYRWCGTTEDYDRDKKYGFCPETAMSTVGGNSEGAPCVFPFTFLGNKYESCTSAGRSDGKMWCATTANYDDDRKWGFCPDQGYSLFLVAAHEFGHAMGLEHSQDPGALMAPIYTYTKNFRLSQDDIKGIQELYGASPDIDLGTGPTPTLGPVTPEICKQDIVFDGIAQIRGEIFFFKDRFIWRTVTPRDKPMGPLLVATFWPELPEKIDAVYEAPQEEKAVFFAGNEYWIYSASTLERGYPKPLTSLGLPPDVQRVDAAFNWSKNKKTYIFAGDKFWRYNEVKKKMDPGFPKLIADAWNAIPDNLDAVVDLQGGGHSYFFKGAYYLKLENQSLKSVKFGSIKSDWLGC
Disintegrin and metalloproteinase domain-containing protein 17, sequence (P78536 whole entry, the tested form may be a part): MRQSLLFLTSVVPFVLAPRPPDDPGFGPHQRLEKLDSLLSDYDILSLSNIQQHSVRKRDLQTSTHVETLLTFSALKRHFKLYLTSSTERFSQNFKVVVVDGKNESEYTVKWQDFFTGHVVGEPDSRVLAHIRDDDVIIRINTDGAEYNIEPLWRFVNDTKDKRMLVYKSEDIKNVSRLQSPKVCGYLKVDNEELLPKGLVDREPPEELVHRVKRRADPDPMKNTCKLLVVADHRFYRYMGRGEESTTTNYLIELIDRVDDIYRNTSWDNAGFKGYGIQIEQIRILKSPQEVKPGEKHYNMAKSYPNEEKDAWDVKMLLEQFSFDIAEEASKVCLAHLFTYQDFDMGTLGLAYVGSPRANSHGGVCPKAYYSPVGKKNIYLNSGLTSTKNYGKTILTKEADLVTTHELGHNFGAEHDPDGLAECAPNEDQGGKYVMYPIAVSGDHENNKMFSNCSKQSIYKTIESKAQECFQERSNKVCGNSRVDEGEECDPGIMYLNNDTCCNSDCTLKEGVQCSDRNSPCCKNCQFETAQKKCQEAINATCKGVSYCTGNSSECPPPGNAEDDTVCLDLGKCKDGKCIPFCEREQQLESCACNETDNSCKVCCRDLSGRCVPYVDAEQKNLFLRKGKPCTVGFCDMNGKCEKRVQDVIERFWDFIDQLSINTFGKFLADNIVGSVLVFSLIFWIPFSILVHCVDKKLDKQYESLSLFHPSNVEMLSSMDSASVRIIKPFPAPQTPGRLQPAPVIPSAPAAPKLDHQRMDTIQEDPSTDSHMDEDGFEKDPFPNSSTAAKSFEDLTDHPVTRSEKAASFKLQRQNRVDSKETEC
Cytochrome P450 2D6, sequence (P10635 whole entry): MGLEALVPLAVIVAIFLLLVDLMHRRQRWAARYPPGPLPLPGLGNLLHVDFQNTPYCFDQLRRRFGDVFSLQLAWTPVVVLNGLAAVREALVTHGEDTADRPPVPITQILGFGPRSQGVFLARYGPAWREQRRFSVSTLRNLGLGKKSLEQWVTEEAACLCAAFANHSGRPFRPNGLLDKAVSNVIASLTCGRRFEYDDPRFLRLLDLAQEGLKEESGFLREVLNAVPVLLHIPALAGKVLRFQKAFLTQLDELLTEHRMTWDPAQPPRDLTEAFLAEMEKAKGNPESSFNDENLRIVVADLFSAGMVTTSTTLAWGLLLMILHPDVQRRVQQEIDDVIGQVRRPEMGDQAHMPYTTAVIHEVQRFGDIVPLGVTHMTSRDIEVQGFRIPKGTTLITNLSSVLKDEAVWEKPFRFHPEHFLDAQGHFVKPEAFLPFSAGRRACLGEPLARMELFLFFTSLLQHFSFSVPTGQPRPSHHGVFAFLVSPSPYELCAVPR

For `CCOC(=O)c1ccc(N2CN(CCc3ccccc3)CN=C2S)cc1`, the IC50 in “cells [1]” is > 29.9 µM (inactive). The EC50 in “cells [2]” was > 29.9 µM (inactive).
Turning to `N=C1/C(=C\c2ccc(-c3cccc(Cl)c3)o2)C(=O)N=C2SC=C(c3ccccc3)N12`, the IC50 is 27.8 µM (active) in [3], 52.9 µM (active) at Prothrombin and > 100 µM (inactive) in experiment [4].
Take `NC(=Nc1cccc2ccccc12)Nc1nc(O)c2c(n1)CCC2`: the IC50 in experiment [3] was 24.3 µM (active); on Prothrombin, > 100 µM (inactive); in experiment [4], > 100 µM (inactive). The concentration giving a half-maximal response (EC50) (in [5]; in the experiment on H4; in experiment [6]) was > 120 µM (not active) throughout. The AC50 on Cytochrome P450 2D6 is 11.2 µM (inconclusive).
Consider `COc1ccc(C(=O)NC(=S)NNC(=O)c2cnccn2)cc1`, for which the EC50 in experiment [7] was 9.88 µM (active); in [9] it was 2.02 µM (active). For the same compound, the half-maximal activity concentration (AC50) in experiment [8] is 2.71 µM (active); in the experiment with INS1 it was 0.933 µM (active).
Consider `COc1cc(/C=C2/C(=O)NN(c3ccc(Cl)cc3)C2=O)cc(Br)c1O`, for which the IC50 in experiment [3] is 14.5 µM (active); on Prothrombin, 60.6 µM (active); in experiment [10] it was 103 µM (active); in [4], 54.8 µM (active).
For `CCN(CC)c1ccc(/C=N/NC(=O)c2cccc(S(=O)(=O)Nc3ccccc3OC)c2)cc1`, the IC50 is 26.3 µM (active) in [3], 33.2 µM (active) at Prothrombin and > 100 µM (inactive) in experiment [4].
With `C#CCN(C[C@@H]1[C@@H](OC(=O)NCc2ccc(OC)c(OC)c2)[C@@H](OC(=O)NCc2ccc(OC)c(OC)c2)Cn2c(=O)n(CCCCCC)c(=O)n21)S(=O)(=O)c1ccc(C)cc1`, the IC50 in experiment [11] and in experiment [12] was > 69.5 µM (inactive) each time.
Take `Oc1cccc(/C=N/N(Cc2ccccc2)c2ccccc2)c1`: the EC50 in the experiment on Streptococcus is 7.85 µM (active); at Streptokinase A, > 150 µM (not active); in experiment [13] it was 6.42 µM (active). For the same compound, the IC50 was > 69.5 µM (inactive) in [11] and > 7.73 µM (active) in experiment [12].
